# Reference: US20220249413A1, “SWELL 1 MODULATORS FOR TREATMENT OF NON-ALCOHOLIC FATTY LIVER DISEASE, IMMUNE DEFICIENCIES, MALE INFERTILITY AND VASCULAR DISEASES” (priority 2019, published 2022)
# Target: T1, ICl,SWELL (Homo sapiens, UniProt Q8IWT6)
# T1 construct: endogenous in cells; host or cells: HEK cells (printed 'BEK cells')
# T1 sequence (Q8IWT6 1-810): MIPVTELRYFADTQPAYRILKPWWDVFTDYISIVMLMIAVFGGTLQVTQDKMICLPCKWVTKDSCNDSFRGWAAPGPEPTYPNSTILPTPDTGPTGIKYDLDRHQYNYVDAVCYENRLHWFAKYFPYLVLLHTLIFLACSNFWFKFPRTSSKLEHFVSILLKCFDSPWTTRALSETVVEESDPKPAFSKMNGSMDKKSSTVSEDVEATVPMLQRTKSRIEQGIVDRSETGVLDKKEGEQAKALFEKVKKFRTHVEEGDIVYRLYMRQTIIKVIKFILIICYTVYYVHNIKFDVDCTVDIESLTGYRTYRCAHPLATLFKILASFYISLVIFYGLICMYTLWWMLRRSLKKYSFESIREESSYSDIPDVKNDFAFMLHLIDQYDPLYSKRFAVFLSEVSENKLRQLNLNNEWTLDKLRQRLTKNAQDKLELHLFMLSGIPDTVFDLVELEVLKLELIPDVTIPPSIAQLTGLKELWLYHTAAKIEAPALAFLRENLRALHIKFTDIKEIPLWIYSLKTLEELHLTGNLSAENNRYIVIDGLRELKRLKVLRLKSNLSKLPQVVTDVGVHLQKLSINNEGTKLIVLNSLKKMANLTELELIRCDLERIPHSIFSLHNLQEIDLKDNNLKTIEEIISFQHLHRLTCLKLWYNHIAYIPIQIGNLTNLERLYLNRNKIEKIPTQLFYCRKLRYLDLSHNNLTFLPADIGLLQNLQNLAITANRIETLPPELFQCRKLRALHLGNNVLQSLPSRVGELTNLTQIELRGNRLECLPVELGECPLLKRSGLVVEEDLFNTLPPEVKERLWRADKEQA
# Experiment: ICl,SWELL patch-clamp upon hypotonic stimulation
# Type: cell-based
# Conditions: 10 μM Smod1, HEK cells (FIG. 2f)
# Method: For Smod1 (DCPIB) mediated induction of SWELL1 and insulin signaling studies in 3T3-F442A preadipocytes, the cells were incubated with either vehicle (DMSO) or 10 μM Smod1 for 96 h. The cells were serum starved for 6 h (+DMSO or Smod1) and stimulated with 0, 3 and 10 nM insulin containing media (−DMSO or Smod1), as described above for 15 mins and the lysates were collected. In the case of 3T3-F442A adipocytes, the WT and KO cells were treated with either vehicle (DMSO) or 10 μM Smod1 following 7-11 days of differentiation for 96 h and then stimulated with 0 and 10 nM insulin for 15 min, as described above. Human embryonic kidney (HEK) cells were cultured and maintained in 90% DMEM (25 mM D-Glucose and 4 mM L-Glutamine) containing 10% fetal bovine serum (FBS) and 100 IU penicillin and 100 μg/ml streptomycin media.
# Electrophysiology Patch-clamp recordings of β-cells and mature adipocytes were performed as described previously (Zhang et al., Nat Cell Biol, 19, 504-517, 2017; Kang et al., Nature Communications, 9, 367, 2018). 3T3-F442A WT and KO preadipocytes were prepared as described in the Cell culture section above. […] Recordings were measured using Axopatch 200B amplifier paired to a Digidata 1550 digitizer using pClamp 10.4 software. […] The images were further analyzed for band intensities using ImageJ software. […]
structure (smiles),measurement,value
"CCCCC1(C2CCCC2)Cc2cc(OCCCC(=O)O)c(Cl)c(Cl)c2C1=O (stereo not shown) [Smod1, 4-[(2-Butyl-6,7-dichloro-2-cyclopentyl-2,3-dihydro-1-oxo-1H-inden-5-yl)oxy]butanoic acid]","ICl,SWELL inward and outward current after hypotonic stimulation",inhibition
